Reference: US4272524A, “N-Acyl-muramyl peptide derivatives having anti-infectious infections properties” (priority 1976, dated 1981)

System: Klebsiella pneumoniae
Assay: Response of mice to an intramuscular infection by 10^4 Klebsiella pneumoniae (Table 2)
Type: in vivo
[1] = i.v. hour + 1 after inoculation, 100 μg per animal
[2] = per os day-1, 2,000 μg per animal

Compound | Survival (%) D + 3 (i.v. day-1, 100 μg per animal) | Survival (%) D + 5 (i.v. day-1, 100 μg per animal) | Survival (%) D + 8 (i.v. day-1, 100 μg per animal) | Survival (%) D + 3 [1] | Survival (%) D + 5 [1] | Survival (%) D + 8 [1] | Survival (%) D + 3 [2] | Survival (%) D + 5 [2] | Survival (%) D + 8 [2] | Survival (%) D + 3 (s.c. day-1, 100 μg per animal) | Survival (%) D + 5 (s.c. day-1, 100 μg per animal) | Survival (%) D + 8 (s.c. day-1, 100 μg per animal)
Ac--Mur--L-Ala--D-Glu-- γ(L-Lys)--NH2 [Ac--Mur--L-Ala--D-Glu--(L-Lys)--NH2] | 100% | 93% | 73% | 91% | 78% | 66% | 81% | 81% | 56% | 100% | 81% | 75%
CC(=O)N[C@H]1C(O)O[C@H](CO)[C@@H](O)[C@@H]1O[C@H](C)C(=O)N[C@@H](C)C(=O)N[C@H](CCC(N)=O)C(=O)O (stereo partly drawn) [Ac--Mur--L-Ala--D-Glu--γ(NH2)] | 92% | 79% | 67% | – | – | – | – | – | – | – | – | –
Ac--Mur--L-Ala--D-Glu-- γ(L-Ala)--NH2 [Ac--Mur--L-Ala--D-Glu--(L-Ala)--NH2] | 100% | 94% | 63% | – | – | – | – | – | – | – | – | –
Ac--Mur--L-Ala--D-Glu-- γ(L-Lys--L-Ala)--NH2 [Ac--Mur--L-Ala--D-Glu--(L-Lys--L-Ala)] | 96% | 79% | 71% | – | – | – | – | – | – | – | – | –
